ChEMBL document CHEMBL3046761, “Synthesis of 27-oxo, 27-hydroxymilbemycins A3 and A4 and novel 27-alkoxymilbemycins A3 and A4 from milbemycins A3 and A4 and their acaricidal activities” (2002)

What was measured:
Tetranychus urticae [1] = test: Acaricidal activity against Tetranychus urticae (two-spotted spider mite) infected cowpea plant assessed as mortality at 10 ppm sprayed 24 hr post-infection measured after 3 days; format: functional
Tetranychus urticae [2] = test: Acaricidal activity against Tetranychus urticae (two-spotted spider mite) infected cowpea plant assessed as mortality at 1 ppm sprayed 24 hr post-infection measured after 3 days; format: functional

CC[C@H]1O[C@]2(CC[C@@H]1C)C[C@@H]1C[C@@H](C/C=C(\C)C[C@@H](C)/C=C/C=C3\[C@H](OC(C)C)O[C@@H]4[C@H](O)C(C)=C[C@@H](C(=O)O1)[C@]34O)O2 [27-BETAISOPROPOXY MILBEMYCIN A4]
mortality at 10 ppm (Tetranychus urticae [1]): 72%
mortality at 1 ppm (Tetranychus urticae [2]): 22%

CO[C@H]1O[C@@H]2[C@H](O)C(C)=C[C@H]3C(=O)O[C@H]4C[C@@H](C/C=C(\C)C[C@@H](C)/C=C/C=C\1[C@]23O)O[C@@]1(CC[C@H](C)[C@@H](C)O1)C4 [27-ALPHAMETHOXY MILBEMYCIN A3]
mortality at 10 ppm (Tetranychus urticae [1]): 72%
mortality at 1 ppm (Tetranychus urticae [2]): 8%

CC1=C[C@H]2C(=O)O[C@H]3C[C@@H](C/C=C(\C)C[C@@H](C)/C=C/C=C(\C=O)[C@]2(O)[C@H](O)[C@@H]1O)O[C@@]1(CC[C@H](C)[C@@H](C)O1)C3
mortality at 10 ppm (Tetranychus urticae [1]): 17%
mortality at 1 ppm (Tetranychus urticae [2]): 7%

CC[C@H]1O[C@]2(CC[C@@H]1C)C[C@@H]1C[C@@H](C/C=C(\C)C[C@@H](C)/C=C/C=C3\[C@@H](OC)O[C@@H]4[C@H](O)C(C)=C[C@@H](C(=O)O1)[C@]34O)O2 [27-ALPHAMETHOXY MILBEMYCIN A4]
mortality at 10 ppm (Tetranychus urticae [1]): 92%
mortality at 1 ppm (Tetranychus urticae [2]): 17%

CC[C@H]1O[C@]2(CC[C@@H]1C)C[C@@H]1C[C@@H](C/C=C(\C)C[C@@H](C)/C=C/C=C3\CO[C@@H]4[C@H](O)C(C)=C[C@@H](C(=O)O1)[C@]34O)O2 [MILBEMYCIN A4]
mortality at 10 ppm (Tetranychus urticae [1]): 100%
mortality at 1 ppm (Tetranychus urticae [2]): 32%

CC1=C[C@H]2C(=O)O[C@H]3C[C@@H](C/C=C(\C)C[C@@H](C)/C=C/C=C4\C(=O)O[C@H]([C@@H]1O)[C@@]42O)O[C@@]1(CC[C@H](C)[C@@H](C)O1)C3 [27-OXOMILBEMYCIN A3]
mortality at 10 ppm (Tetranychus urticae [1]): 3%
mortality at 1 ppm (Tetranychus urticae [2]): 3%

CC[C@H]1O[C@]2(CC[C@@H]1C)C[C@@H]1C[C@@H](C/C=C(\C)C[C@@H](C)/C=C/C=C(\C=O)[C@]3(O)[C@H](O)[C@H](O)C(C)=C[C@H]3C(=O)O1)O2
mortality at 10 ppm (Tetranychus urticae [1]): 53%
mortality at 1 ppm (Tetranychus urticae [2]): 11%

CC1=C[C@H]2C(=O)O[C@H]3C[C@@H](C/C=C(\C)C[C@@H](C)/C=C/C=C4\CO[C@H]([C@@H]1O)[C@@]42O)O[C@@]1(CC[C@H](C)[C@@H](C)O1)C3 [MILBEMYCIN A3]
mortality at 10 ppm (Tetranychus urticae [1]): 69%
mortality at 1 ppm (Tetranychus urticae [2]): 3%

CC[C@H]1O[C@]2(CC[C@@H]1C)C[C@@H]1C[C@@H](C/C=C(\C)C[C@@H](C)/C=C/C=C3\C(=O)O[C@@H]4[C@H](O)C(C)=C[C@@H](C(=O)O1)[C@]34O)O2 [27-OXOMILBEMYCIN A4]
mortality at 10 ppm (Tetranychus urticae [1]): 11%
mortality at 1 ppm (Tetranychus urticae [2]): 4%

CC[C@H]1O[C@]2(CC[C@@H]1C)C[C@@H]1C[C@@H](C/C=C(\C)C[C@@H](C)/C=C/C=C3\C(O)O[C@@H]4[C@H](O)C(C)=C[C@@H](C(=O)O1)[C@]34O)O2 (some centres not stated) [27-HYDROXY MILBEMYCIN A4]
mortality at 10 ppm (Tetranychus urticae [1]): 53%
mortality at 1 ppm (Tetranychus urticae [2]): 11%

CC[C@H]1O[C@]2(CC[C@@H]1C)C[C@@H]1C[C@@H](C/C=C(\C)C[C@@H](C)/C=C/C=C3\[C@H](OC)O[C@@H]4[C@H](O)C(C)=C[C@@H](C(=O)O1)[C@]34O)O2 [27-BETAMETHOXY MILBEMYCIN A4]
mortality at 10 ppm (Tetranychus urticae [1]): 87%
mortality at 1 ppm (Tetranychus urticae [2]): 19%

CCO[C@@H]1O[C@@H]2[C@H](O)C(C)=C[C@H]3C(=O)O[C@H]4C[C@@H](C/C=C(\C)C[C@@H](C)/C=C/C=C\1[C@]23O)O[C@@]1(CC[C@H](C)[C@@H](CC)O1)C4 [27-BETAETHOXY MILBEMYCIN A4]
mortality at 10 ppm (Tetranychus urticae [1]): 77%
mortality at 1 ppm (Tetranychus urticae [2]): 0%

CC1=C[C@H]2C(=O)O[C@H]3C[C@@H](C/C=C(\C)C[C@@H](C)/C=C/C=C4\C(O)O[C@H]([C@@H]1O)[C@@]42O)O[C@@]1(CC[C@H](C)[C@@H](C)O1)C3 (some centres not stated) [27-HYDROXY MILBEMYCIN A3]
mortality at 10 ppm (Tetranychus urticae [1]): 17%
mortality at 1 ppm (Tetranychus urticae [2]): 7%

CCO[C@H]1O[C@@H]2[C@H](O)C(C)=C[C@H]3C(=O)O[C@H]4C[C@@H](C/C=C(\C)C[C@@H](C)/C=C/C=C\1[C@]23O)O[C@@]1(CC[C@H](C)[C@@H](CC)O1)C4 [27-ALPHAETHOXY MILBEMYCIN A4]
mortality at 10 ppm (Tetranychus urticae [1]): 81%
mortality at 1 ppm (Tetranychus urticae [2]): 25%

CC[C@H]1O[C@]2(CC[C@@H]1C)C[C@@H]1C[C@@H](C/C=C(\C)C[C@@H](C)/C=C/C=C3\[C@@H](OC(C)C)O[C@@H]4[C@H](O)C(C)=C[C@@H](C(=O)O1)[C@]34O)O2 [27-ALPHAISOPROPOXY MILBEMYCIN A4]
mortality at 10 ppm (Tetranychus urticae [1]): 76%
mortality at 1 ppm (Tetranychus urticae [2]): 14%

CO[C@@H]1O[C@@H]2[C@H](O)C(C)=C[C@H]3C(=O)O[C@H]4C[C@@H](C/C=C(\C)C[C@@H](C)/C=C/C=C\1[C@]23O)O[C@@]1(CC[C@H](C)[C@@H](C)O1)C4 [27-BETAMETHOXY MILBEMYCIN A3]
mortality at 10 ppm (Tetranychus urticae [1]): 65%
mortality at 1 ppm (Tetranychus urticae [2]): 3%
